Results reported in PMC4914250, “Cancer therapeutic approach based on conformational stabilization of mutant p53 protein by small peptides” (Oncotarget, 2016).

Tests used:
mutp53^R175H = assay: ELISA of mutp53 DNA binding (p53RE oligonucleotide), H1299-p53^R175H cell extract; type: biochemical, human; conditions: for binding of mutp53 to the p53RE: H1299-p53^R175H extract, Figure 2B; for DNA H1299: score 0-6 compared to positive control, mutp53 DNA binding
Procedure: (§1) Cell extracts were added to ELISA plates coated with the indicated antibodies to allow mutp53 to react with the peptides and antibodies. αp53-HRP Ab was used for assessment of p53 levels. Numbers represent ratio of absorbance between the PAb1620 and PAb240 samples. All reads were normalized to the control […] reading of each extract. MCF7 (WTp53) and H1299-mutp53^A135V (tsp53) cells were used as positive controls for the WTp53 conformation (1620/240 ratio equals or exceeds 5:1). […] 96 well plates were coated with anti-p53 antibody, cell extracts containing p53 were reacted with oligonucleotides that contain a p53RE consensus binding site, labeled with biotin, in the presence or absence (NT) of test peptides. Streptavidin-HRP is used to quantify the amount of oligos in the well. TMB assay was performed to determine bound mutp53 levels (450nm). MCF7 and the H1299-mutp53^A135V(TS) cells serve as positive controls for WTp53. C.and D. - Bar graphs illustrating the effect of various selected peptides on mut-p53 dependent expression on cell viability. […] D, ES2 cells expressing endogenous mutp53 (blue bars) and ES2 cells knocked out for p53 by CRISPR construct (light blue bars). Cell lines were treated with selected peptides, Cis-platinum was used as positive control for cell death. 48 hours after treatment, cells were washed with PBS, and the remaining attached cells were stained with Crystal violet and washed 4 times with PBS. Stained cells were dissolved in 10% acetic acid and plates were taken for optical density measurement at […]. TEXT PRINTED IN THE PICTURE: (A) pCAP1: 0.87 | (A) pCAP2: 0.53 | (A) pCAP3: 0.59 | (A) pCAP4: 0.59 | (A) pCAP5: 0.60 | (A) pCAP6: 0.75 | (A) pCAP23: 1.06 | (A) pCAP24: 1.44 | (A) pCAP36: 1.25 | (A) pCAP47: 1.54 | (A) pCAP54: 1.54 | (A) pCAP60: 2.73 | (A) pCAP68: 2.22 | (A) pCAP83: 1.56 | (A) pCAP97: 2.45 DOUBTS OF THE COPYIST ABOUT THIS PICTURE: Panel A: the numbers over the bars are printed very small, rotated and blurred, so 3, 5, 6, 8 and 9 cannot be told apart with certainty. All values are best readings: pCAP1 0.87, pCAP2 0.53, pCAP3 0.59, pCAP4 0.59, pCAP5 0.60, pCAP6 0.75, pCAP23 1.06, pCAP24 1.44, pCAP36 1.25, pCAP47 1.54, pCAP54 1.54, pCAP60 2.73, pCAP68 2.22, pCAP83 1.56, pCAP97 2.45 / Panel A: the picture prints no measure with the numbers over the bars, so they are given as bare numbers / Panel A: numbers are also printed over the controls, which are not substances and are left out of lines. Best readings: NT 0.60, 60° 30'' 0.48, 60° 1' 0.37, 60° 3' 0.13, 60° 10' 0.05, MCF7 3.32, H1299TS 3.25
(§2) Next, we assessed the ability of our selected peptides to restore sequence-specific DNA binding to mutp53. To that end we employed an ELISA kit (R&D) in which cell extracts containing p53 are reacted with a biotinylated p53RE oligonucleotide and then incubated in wells coated with anti-p53 antibody, which is expected to trap the p53 protein and its associated p53RE DNA. The amount of p53RE retained in each well via p53 binding is quantified by incubation with streptavidin-HRP. […] Again, extracts of MCF7 and H1299-tsp53^A135V cells served as positive controls for WTp53 DNA binding activity. […] Importantly, there was substantial overlap between the peptides that stabilized the WT conformation (Figure 2A) and those that increased specific DNA binding (Figure 2B), further reinforcing the conclusion that those peptides stabilize mutp53 in a functional state. This was not seen with the randomly selected peptides 1-6 (black bars).
For these experiments, a commercial p53/DNA binding kit of “R&D” (Cat-DYC1355-5 Lot-1273366FA) was used, in accordance with manufacturer guide lines. Briefly, 96 well plates we coated with anti-p53 antibody overnight. Cell extracts containing p53 are reacted with an oligonucleotide that contains a p53 consensus binding site (provided in the kit), labeled with Biotin, in the presence or absence (NT) of test peptides. […]

ES2 ovarian cancer cells = assay: Crystal violet viability assay, ES2; type: cell-based, human; design: key to Viability ES2: score 0- no effect-white; score 6- as or more effective than positive control- black; conditions: 48 h; for mutp53-specific effect on cell number, ES2: ES2 (mp53^S241F) versus ES2 p53KO; for Viability ES2: score 0-6 compared to positive control
Procedure: as §1
(§3) We also performed a similar analysis on ES2 ovarian cancer cells, which express endogenous mp53^S241F, compared to ES2 cells in which p53 was stably knocked out using CRISPR/Cas9 (ES2 p53KO Figure S1F), to control for specificity for mutp53 (Figure 2D). In ES2 cells, too, some of the peptides caused a significant reduction in cell numbers, more prominent in the mutp53 expressing cells than in their p53KO counterparts. […] Overall, we performed this analysis on several different mutp53-expressing human cancer cell lines, and the results are summarized in Table S3. Based on this comprehensive picture, we reduced the number of most promising candidate lead peptides to 30. These peptides were then synthesized with an 8 arginine C-terminal tail for enhanced delivery across cell membranes (pCAPs 130-160); for clarity, peptides are referred to by their original number, with an R for poly arginine (see Table S3).
(§4) Cells were cultured in 96 wells plates with 2500-4000 cells/well. Serial dilutions of different peptides were added and the plates incubated for additional 48 h at 37°C. Then medium was removed and cell viability was determined by staining the cells with crystal violet (0.05%) in methanol/PBS (1:5, v/v), for 10 min, followed by 3 washes with PBS. 10% acetic acid was added to each well for 10 min. OD was determined at 595 nm.

EP156 = assay: Crystal violet viability assay, EP156; type: cell-based; design: key: score 0- no effect-white; score 6- as or more effective than positive control- black; conditions: score 0-6 compared to positive control, 48 h
Description: as §3, §4

[1] = tested on: mutp53 in SK3 cell extract; assay: ELISA of mutp53 DNA binding (p53RE oligonucleotide), SK3; type: biochemical, human; conditions: score 0-6 compared to positive control
Procedure: as §2
For these experiments, a commercial p53/DNA binding kit of “R&D” (Cat-DYC1355-5 Lot-1273366FA) was used, in accordance with manufacturer guide lines. Briefly, 96 well plates we coated with anti-p53 antibody overnight. Cell extracts containing p53 are reacted with an oligonucleotide that contains a p53 consensus binding site (provided in the kit), labeled with Biotin, in the presence or absence (NT) of test peptides. WT p53 is expected to bind this DNA binding site as well as to the antibody coating the test wells of the plate. Excess p53 and oligos were washed away and streptavidin-HRP was used to quantify the amount of oligos in the well, which is proportional to the DNA bound by p53. TMB assay was performed to determine HRP (ES001-1L-K) levels (450nm).

Substance	binding of mutp53 to the p53RE (mutp53^R175H)	DNA H1299 (mutp53^R175H)	mutp53-specific effect on cell number, ES2 (ES2 ovarian cancer cells)	Viability ES2 (ES2 ovarian cancer cells)	Viability EP156 (EP156)	DNA SK3 [1]
SFILFIRRGRLG [pCAP-60]	marked increase	3	mutp53-specific effect	3	4	
WNHHHSTPHPAH [pCAP-97]	marked increase	4	mutp53-specific effect	3	3	2
myr-RRKHNKHRPEPDSDER [pCAP-221]		2		6	5	3
myr-RRIRDPRILLLHFD [pCAP-325]		4		4	4	3
myr-RRKILFIRLMHNKH [pCAP-227, myristoylated peptide, similarity to GAS2]		3		5	4	3
myr-PRVLPSPHTIHPSQYP [pCAP-229, myristoylated peptide, similarity to HIPK2]		4			3	3
WNHHHSTPHPAHRRRRRR [pCAP-97R, pCAP-97 with poly arginine tail]		4		4	4	3
HSSHHHPVHSWN [pCAP-83]		5	mutp53-specific effect		4	2
EVTFRHSVV [pCAP-1, randomly selected peptide used as inert comparison]				4		
YRRLLIGMMWRRRRRRRRR [pCAP-68]	marked increase	3		5	3	
LRCLLLLIGRVGRRRRRRRR [pCAP-24R, pCAP-24 with poly arginine tail]		3		3	4	3
IRGRIIRRRRRRRRR [pCAP-54R, pCAP-54 with poly arginine tail]		2		3	4	
HANLHHT [pCAP-87]					4	2
IRILMFLIGCGRRRRRRRRR [pCAP-23R, pCAP-23 with poly arginine tail]		3		3	4	
myr-RRLIVRILKLPNPPER [pCAP-242]		4		5	6	4
LRCLLLLIGRVG [pCAP-24]		3	mutp53-specific effect		4	3
IRILMFLIGCGR [pCAP-23]		1		3	4	
HHPWTHHQRWS [pCAP-20]				3		
YPTQGHLR [pCAP-36]		2	mutp53-specific effect	3	4	2
SFILFIRRGRLGRRRRRRRRR [pCAP-60R, pCAP-60 with poly arginine tail]		3		3	2	2
IRGRIIR [pCAP-54]	marked increase	2	mutp53-specific effect		4	
LHSKTLVL [pCAP-17]		3		3	4	3
